Assay results as given in US20060160915A1, “Photocurable compositions” (priority 2003, published 2006).

Test: Solubility properties in acrylate monomers
Assay type: physicochemical
Settings: 0.2 g in 2.5 g TMP(3EO)TA, 40° C.
Description: For determining the solubility properties in acrylate monomers, which are customarily used for the preparation of overprint varnishes and UV-curable inks, 0.2 g each of the compounds obtained according to Examples 1 and 2 is stirred into 2.5 g of the acrylate monomer in question. In dipropylene glycol diacrylate (DPGDA) both compounds have dissolved within a period of 15 minutes at room temperature. In ethoxylated trimethylolpropane triacrylate (TMP(3EO)TA) the compound according to Example 2 dissolves within a period of 10 minutes at 40° C., while the compound according to Example 1 dissolves after only 4 minutes' heating at 40° C.

SMILES | time to dissolve in ethoxylated trimethylolpropane triacrylate (TMP(3EO)TA)
Cc1cccc(C(=O)c2ccc(-c3ccccc3)cc2)c1 [Example 1, 3-methyl-4′-phenylbenzophenone] | 4 min
Cc1cc(C)c(C(=O)c2ccc(-c3ccccc3)cc2)c(C)c1 [Example 2, 2,4,6-trimethyl-4′-phenylbenzophenone] | ≤ 10 min
